As usually defined, the IC50 is the concentration that inhibits the measured activity by half.

Molecules are shown by their SMILES.

The assay concerns the target T1, recombinant EphB4 (Homo sapiens, UniProt P54760).
T1 construct: amino acids 563-987; Swiss-Prot Acc; No. P54760; purchased ProQinase GmbH 0178-0000-3
T1 sequence (P54760 563-987): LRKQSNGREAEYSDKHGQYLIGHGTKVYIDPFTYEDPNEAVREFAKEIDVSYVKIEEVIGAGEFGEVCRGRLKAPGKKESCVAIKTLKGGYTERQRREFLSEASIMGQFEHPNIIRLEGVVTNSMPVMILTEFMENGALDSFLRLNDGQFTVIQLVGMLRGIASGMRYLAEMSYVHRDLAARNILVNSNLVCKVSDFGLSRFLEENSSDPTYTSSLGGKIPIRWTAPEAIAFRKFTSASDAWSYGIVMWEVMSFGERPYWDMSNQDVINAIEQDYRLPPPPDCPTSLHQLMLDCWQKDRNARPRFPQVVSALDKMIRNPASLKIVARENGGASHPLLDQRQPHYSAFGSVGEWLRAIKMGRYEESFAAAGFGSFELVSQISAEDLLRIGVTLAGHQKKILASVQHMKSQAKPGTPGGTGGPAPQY
As to the kind of experiment: In vitro EphB4 enzyme assay (Alphascreen). It is filed as biochemical. The method, boiled down:
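Recombinant EphB4 phosphorylated biotin-poly-GAT with Mg-ATP for 1 hr at room temperature; EDTA stop, then Alphascreen donor/acceptor (anti-phosphotyrosine) beads for 20 hrs in the dark. After minimum subtraction, signal plotted against compound concentration to derive IC50.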
A general note: Bead proximity is the source of the signal in Alpha formats.
Take `Cc1ccc(CO)cc1N(C)c1ccnc(Nc2cc(OC3CCC3)cc(N3CCOCC3)c2)n1` [Example 17.5, [3-[[2-[(3-cyclobutyloxy-5-morpholin-4-yl-phenyl)amino]pyrimidin-4-yl]-methyl-amino]-4-methyl-phenyl]methanol]: the half-inhibitory concentration (IC50) worked out at 951 nM.
The result for `COC(C)CCOc1cc(Nc2nccc(N(C)c3cc(CO)ccc3C)n2)cc(N2CCOCC2)c1` (stereo not shown) [Example 17.6, [3-[[2-[[3-(3-methoxybutoxy)-5-morpholin-4-yl-phenyl]amino]pyrimidin-4-yl]-methyl-amino]-4-methyl-phenyl]methanol] reads 1210 nM; that for `CCOCCOc1cc(Nc2nccc(N(C)c3cc(CO)ccc3C)n2)cc(N2CCOCC2)c1` [Example 17.7, [3-[[2-[[3-(2-ethoxyethoxy)-5-morpholin-4-yl-phenyl]amino]pyrimidin-4-yl]-methyl-amino]-4-methyl-phenyl]methanol], 639 nM; that for `Cc1ccc(CO)cc1N(C)c1ccnc(Nc2cc(OC3CCOC3)cc(N3CCOCC3)c2)n1` (stereo not shown) [Example 17.8, [4-methyl-3-[methyl-[2-[[3-morpholin-4-yl-5-(oxolan-3-yloxy)phenyl]ami-no]pyrimidin-4-yl]amino]phenyl]methanol], 481 nM.
Consider `Cc1ccc(CO)cc1N(C)c1ccnc(Nc2cc(O[C@H]3CCOC3)cc(N3CCOCC3)c2)n1` [Example 17.9, [4-methyl-3-[methyl-[2-[[3-morpholin-4-yl-5-[(3S)-oxolan-3-yl]oxyphenyl]ami-no]pyrimidin-4-yl]amino]phenyl]methanol], for which the IC50 stood at 443 nM.
Take `Cc1ccc(CO)cc1N(C)c1ccnc(Nc2cc(C(=O)N3CCCC3)cc(N3CCOCC3)c2)n1` [Example 18.2]: the IC50 amounted to 62.3 nM.
With `Cc1ccc(CO)cc1N(C)c1ccnc(Nc2cc(C(=O)NCC(C)C)cc(N3CCOCC3)c2)n1` [Example 18.3, 3-[[4-[[5-(hydroxymethyl)-2-methyl-phenyl]-methyl-amino]pyrimidin-2-yl]amino]-N-(2-methylpropyl)-5-morpholin-4-yl-benzamide], the IC50 came to 246 nM.
The result for `CCN(C)C(=O)c1cc(Nc2nccc(N(C)c3cc(CO)ccc3C)n2)cc(N2CCOCC2)c1` [Example 18.4, N-ethyl-3-[[4-[[5-(hydroxymethyl)-2-methyl-phenyl]-methyl-amino]pyrimidin-2-yl]amino]-N-methyl-5-morpholin-4-yl-benzamide] reads 75.3 nM.
With `Cc1ccc(CO)cc1N(C)c1ccnc(Nc2cc(C(=O)NCC3CC3)cc(N3CCOCC3)c2)n1` [Example 18.5, N-(cyclopropylmethyl)-3-[[4-[[5-(hydroxymethyl)-2-methyl-phenyl]-methyl-amino]pyrimidin-2-yl]amino]-5-morpholin-4-yl-benzamide], the IC50 amounted to 477 nM.
With `Cc1ccc(CO)cc1N(C)c1ccnc(Nc2cc(C(=O)N(C)C(C)C)cc(N3CCOCC3)c2)n1` [Example 18.6, 3-[[4-[[5-(hydroxymethyl)-2-methyl-phenyl]-methyl-amino]pyrimidin-2-yl]amino]-N-methyl-5-morpholin-4-yl-N-propan-2-yl-benzamide], the IC50 stood at 342 nM.
Regarding `COCCN(C)C(=O)c1cc(Nc2nccc(N(C)c3cc(CO)ccc3C)n2)cc(N2CCOCC2)c1` [Example 18.7, 3-[[4-[[5-(hydroxymethyl)-2-methyl-phenyl]-methyl-amino]pyrimidin-2-yl]amino]-N-(2-methoxyethyl)-N-methyl-5-morpholin-4-yl-benzamide], the IC50 came to 118 nM.
For the molecule `CN(C)C(=O)c1cc(Nc2nccc(N(C)c3cccc(Cl)c3)n2)cc(N2CCOCC2)c1` [Example 19.1, 3-[[4-[(3-chlorophenyl)-methyl-amino]pyrimidin-2-yl]amino]-N,N-dimethyl-5-morpholin-4-yl-benzamide], the half-maximal inhibitory concentration (IC50) came out at 419 nM.
The result for `CN(CCO)C(=O)c1cc(Nc2nccc(N(C)c3cccc(Cl)c3)n2)cc(N2CCOCC2)c1` [Example 19.2, 3-[[4-[(3-chlorophenyl)-methyl-amino]pyrimidin-2-yl]amino]-N-(2-hydroxyethyl)-N-methyl-5-morphohn-4-yl-benzamide] reads 395 nM; that for `COCCN(C)C(=O)c1cc(Nc2nccc(N(C)c3cccc(Cl)c3)n2)cc(N2CCOCC2)c1` [Example 19.3, 3-[[4-[(3-chlorophenyl)-methyl-amino]pyrimidin-2-yl]amino]-N-(2-methoxyethyl)-N-methyl-5-morpholin-4-yl-benzamide], 571 nM; that for `CN(CCCO)C(=O)c1cc(Nc2nccc(N(C)c3cccc(Cl)c3)n2)cc(N2CCOCC2)c1` [Example 19.4, 3-[[4-[(3-chlorophenyl)-methyl-amino]pyrimidin-2-yl]amino]-N-(3-hydroxypropyl)-N-methyl-5-morpholin-4-yl-benzamide], 295 nM.
The value for `C[C@H](O)CN(C)C(=O)c1cc(Nc2nccc(N(C)c3cccc(Cl)c3)n2)cc(N2CCOCC2)c1` [Example 19.5, 3-[[4-[(3-chlorophenyl)-methyl-amino]pyrimidin-2-yl]amino]-N-[(2S)-2-hydroxypropyl]-N-methyl-5-morpholin-4-yl-benzamide] was 181 nM.
On to `C[C@@H](CO)N(C)C(=O)c1cc(Nc2nccc(N(C)c3cccc(Cl)c3)n2)cc(N2CCOCC2)c1` [Example 19.6], for which the IC50 amounted to 339 nM.
Take `CCN(C)C(=O)c1cc(Nc2nccc(N(C)c3cccc(Cl)c3)n2)cc(N2CCOCC2)c1` [Example 19.7, 3-[[4-[(3-chlorophenyl)-methyl-amino]pyrimidin-2-yl]amino]-N-ethyl-N-methyl-5-morpholin-4-yl-benzamide]: the IC50 was 648 nM.
The result for `CC(C)N(C)C(=O)c1cc(Nc2nccc(N(C)c3cccc(Cl)c3)n2)cc(N2CCOCC2)c1` [Example 19.8] reads 1450 nM.
In the case of `CN(c1cccc(Cl)c1)c1ccnc(Nc2cc(C(=O)N3CCCC3)cc(N3CCOCC3)c2)n1` [Example 19.9], the IC50 stood at 754 nM.
With `CN(c1cccc(Cl)c1)c1ccnc(Nc2cc(C(=O)N3CCOCC3)cc(N3CCOCC3)c2)n1` [Example 19.10, [3-[[4-[(3-chlorophenyl)-methyl-amino]pyrimidin-2-yl]amino]-5-morpholin-4-yl-phenyl]-morpholin-4-yl-methanone], the IC50 was found to be 656 nM.
Consider `CN1CCN(C(=O)c2cc(Nc3nccc(N(C)c4cccc(Cl)c4)n3)cc(N3CCOCC3)c2)CC1` [Example 19.11, [3-[[4-[(3-chlorophenyl)-methyl-amino]pyrimidin-2-yl]amino]-5-morpholin-4-yl-phenyl]-(4-methylpiperazin-1-yl)methanone], for which the concentration for half-maximal inhibition (IC50) is 207 nM.
The result for `CN(c1cccc(Cl)c1)c1ccnc(Nc2cc(C(=O)N3CCC(O)CC3)cc(N3CCOCC3)c2)n1` [Example 19.12, [3-[[4-[(3-chlorophenyl)-methyl-amino]pyrimidin-2-yl]amino]-5-morpholin-4-yl-phenyl]-(4-hydroxy-1-piperidyl) methanone] reads 234 nM.
Turning to `CN(c1cccc(Cl)c1)c1ccnc(Nc2cc(C(=O)NC3CCC3)cc(N3CCOCC3)c2)n1` [Example 19.13, 3-[[4-[(3-chlorophenyl)-methyl-amino]pyrimidin-2-yl]amino]-N-cyclobutyl-5-morpholin-4-yl-benzamide], the IC50 was determined as 2080 nM.
The value for `CC(C)NC(=O)c1cc(Nc2nccc(N(C)c3cccc(Cl)c3)n2)cc(N2CCOCC2)c1` [Example 19.14, 3-[[4-[(3-chlorophenyl)-methyl-amino]pyrimidin-2-yl]amino]-5-morpholin-4-yl-N-propan-2-yl-benzamide] was 1180 nM.
The value for `COCC(C)NC(=O)c1cc(Nc2nccc(N(C)c3cccc(Cl)c3)n2)cc(N2CCOCC2)c1` (stereo not shown) [Example 19.15, 3-[[4-[(3-chlorophenyl)-methyl-amino]pyrimidin-2-yl]amino]-N-(1-methoxypropan-2-yl)-5-morpholin-4-yl-benzamide] was 1100 nM.
Regarding `CN(c1cccc(Cl)c1)c1ccnc(Nc2cc(C(=O)NCC3CC3)cc(N3CCOCC3)c2)n1` [Example 19.16, 3-[[4-[(3-chlorophenyl)-methyl-amino]pyrimidin-2-yl]amino]-N-(cyclopropylmethyl)-5-morpholin-4-yl-benzamide], the half-inhibitory concentration (IC50) was found to be 1970 nM.
Regarding `CC(C)CNC(=O)c1cc(Nc2nccc(N(C)c3cccc(Cl)c3)n2)cc(N2CCOCC2)c1` [Example 19.17, 3-[[4-[(3-chlorophenyl)-methyl-amino]pyrimidin-2-yl]amino]-N-(2-methylpropyl)-5-morphohn-4-yl-benzamide], the IC50 was found to be 2830 nM.
The value for `COCCNC(=O)c1cc(Nc2nccc(N(C)c3cccc(Cl)c3)n2)cc(N2CCOCC2)c1` [Example 19.18, 3-[[4-[(3-chlorophenyl)-methyl-amino]pyrimidin-2-yl]amino]-N-(2-methoxyethyl)-5-morpholin-4-yl-benzamide] was 614 nM; that for `CN(c1cccc(Cl)c1)c1ccnc(Nc2cc(C(=O)NC(C)(C)CO)cc(N3CCOCC3)c2)n1` [Example 19.19, 3-[[4-[(3-chlorophenyl)-methyl-amino]pyrimidin-2-yl]amino]-N-(1-hydroxy-2-methyl-propan-2-yl)-5-morpholin-4-yl-benzamide] was 1050 nM.
The value for `CN(c1cccc(Cl)c1)c1ccnc(Nc2cc(C(=O)NC(C)(C)C)cc(N3CCOCC3)c2)n1` [Example 19.20, 3-[[4-[(3-chlorophenyl)-methyl-amino]pyrimidin-2-yl]amino]-5-morpholin-4-yl-N-tert-butyl-benzamide] was 3090 nM.
